{"source": "patent US20200069775A1", "about": "“BRAIN OSTEOCALCIN RECEPTOR AND COGNITIVE DISORDERS” (The Trustees of Columbia University in the City of New York, priority 2017, published 2020)", "key": {"[1]": {"test_system": "mouse primary hindbrain neurons (MPHN)", "assay": "Calcium flux in mouse primary hindbrain neurons", "type": "cell-based", "method": "For calcium imaging, primary hindbrain neurons seeded on 12 mm coverslips were allowed the appropriate time to form structural networks. These cultures were washed with HBSS and loaded with 2.5 μM FURA-2, AM calcium indicator for 45 minutes at room temperature, according to the manufacturer's protocol. Cells were then washed to remove excess indicator and incubated for 30 minutes to allow internalized esters to become de-esterified. 30 ng/ml of osteocalcin was prepared with the control buffer of 1× HBBS supplemented with 10 mM HEPES buffer and 2 mM CaCl2. Using a Zeiss microscope with a perfusion system, coverslips were first perfused with control and osteocalcin. After each stimulation, cells were depolarized with 50 mM KCl to determine the percentage of live cells being imaged. All treatments were recorded using two-photon laser scanning microscopy by Prairie Technologies and analyzed by Z axis profile plotting using ImageJ.\nTo determine if osteocalcin acts directly on neurons to modulate neurotransmitter synthesis, several types of assays were performed. First, brainstem and midbrain explants from WT and Gprc6a^−/− mice were generated. […] Third, to further confirm that osteocalcin signals in neurons of the hindbrain, calcium flux in MPHN treated with undercarboxylated or carboxylated osteocalcin (FIG. 3F) was measured."}, "[2]": {"assay": "Ex vivo dual perfusion of the mouse placenta (maternal-fetal transport)", "type": "in vitro ADME", "method": "Maternal-fetal transport of osteocalcin was monitored using ex vivo dual perfusion of the mouse placenta (Goeden & Bonnin, 2013, Nature Protocols 8:66-74). Osteocalcin (300 ng/ml) was injected on the maternal side through the uterine artery in placentas obtained from WT mice at E14.5, E15.5, and E18.5 of pregnancy (n=3 independent perfusions per age). Osteocalcin transport through the placenta was analyzed by measuring the concentration of osteocalcin present in fetal eluates obtained through the umbilical vein, each time point (1-9) corresponding to a 10 minute collection period (at 5 μl/min). Collection time points (from 10 to 30 min of perfusion) were obtained during materal fluid infusion; time points 4-6 (from 30 to 60 min of perfusion) were obtained during osteocalcin infusion into the maternal uterine artery, whereas for time points 7-9 (from 60 to 90 min of perfusion, respectively) the maternal uterine artery was infused with maternal fluid alone.\nAny influence of maternal osteocalcin on fetal brain development requires that this hormone cross the placenta. This was investigated through an ex vivo dual perfusion system that monitors the transport of substances across the mouse placenta (Bonnin et al., 2011, Nature 472:347-350; Goeden and Bonnin, […], Nature Protocols 8:66-74)."}, "WT mice": {"test_system": "WT mice", "assay": "Contextual Fear Conditioning after acute hippocampal injection", "type": "in vivo, mouse", "method": "FIG. 11. CREB activation by osteocalcin is functionally relevant. Contextual fear conditioning in 3.5 month old mice injected acutely with 10 ng recombinant uncarboxylated osteocalcin 24 hours prior to context exposure. 3 shocks of 0.55 mA were delivered to mice 1 min apart.\nTo determine whether these acute injections and corresponding activation of the CREB pathway are functionally relevant, Contextual Fear Conditioning (CFC), a hippocampus dependent task that assesses long term memory, was performed. Mice were injected acutely in both hemispheres with either PBS or 10 ng recombinant uncarboxylated osteocalcin."}}, "note": "Entries after “also recorded” stand apart in the source; their conditions may differ."}
{"substance": "osteocalcin: Recombinant osteocalcin bacterially produced, cleaved from the GST subunit; completely undercarboxylated at all three sites; full-length mouse osteocalcin (YLGASVPSPDPLEPTREQCELNPACDELSDQYGLKTAYKRIYGITI)", "values": [{"measurement": "calcium fluxes", "setting": "[1]", "value": "induced changes in calcium fluxes"}, {"measurement": "transport across the placenta", "setting": "[2]; day 14.5 of gestation, 300 ng/ml through uterine artery", "value": "begins to cross the placenta"}, {"measurement": "transplacental transfer to the fetal circulation", "setting": "[2]; day 15.5 or 18.5 of gestation", "value": "larger transplacental transfer"}, {"measurement": "% freezing on Day 1 (CFC)", "setting": "WT mice; 10 ng injected 24 hours prior to context exposure", "value": "% freezing was the same for both groups"}, {"measurement": "freezing behavior 24 hours after the initial shocks (CFC)", "setting": "WT mice; 10 ng injected acutely in both hemispheres, listed as recombinant uncarboxylated osteocalcin", "value": "increased freezing behavior as compared to controls; also recorded: increased freezing along with hyperexcitability"}]}
